Measurements published in ChEMBL document CHEMBL3779788, “Facile synthesis of 1,3-thiazolidin-4-ones as antitubercular agents” (Bioorg Med Chem Lett, 2016).
≈ marks a conversion by molar mass, not a printed value.

Columns and labels:
[1] = system: Mycobacterium bovis BCG str. ATCC 35743; test: Antitubercular activity against dormant Mycobacterium bovis BCG ATCC 35743 assessed as growth inhibition at 3 ug/mL by NR assay; assay type: functional
[2] = system: Mycobacterium bovis BCG str. ATCC 35743; test: Antitubercular activity against dormant Mycobacterium bovis BCG ATCC 35743 assessed as growth inhibition at 10 ug/mL by NR assay; assay type: functional
[3] = system: Mycobacterium tuberculosis; test: Antitubercular activity against dormant Mycobacterium tuberculosis H37Ra assessed as growth inhibition at 30 ug/mL by XTT reduction menadione assay; assay type: functional; conditions: read-out: GI
[4] = system: Mycobacterium tuberculosis; test: Antitubercular activity against dormant Mycobacterium tuberculosis H37Ra assessed as growth inhibition at 10 ug/mL by XTT reduction menadione assay; assay type: functional; conditions: read-out: GI
[5] = system: Mycobacterium tuberculosis; test: Antitubercular activity against dormant Mycobacterium tuberculosis H37Ra assessed as growth inhibition at 3 ug/mL by XTT reduction menadione assay; assay type: functional; conditions: read-out: GI
[6] = system: Mycobacterium bovis BCG str. ATCC 35743; test: Antitubercular activity against dormant Mycobacterium bovis BCG ATCC 35743 assessed as growth inhibition at 30 ug/mL by NR assay; assay type: functional
[7] = (§1) Antitubercular activity against dormant Mycobacterium bovis BCG ATCC 35743 by NR assay; assay type: functional, Mycobacterium bovis BCG str. ATCC 35743
[8] = system: Mycobacterium bovis BCG str. ATCC 35743; test: as §1; assay type: functional
[9] = system: Mycobacterium tuberculosis; test: Antitubercular activity against dormant Mycobacterium tuberculosis H37Ra by XTT reduction menadione assay; assay type: functional, organism-based
[10] = Cytotoxicity against human MCF7 cells at 30 ug/mL by MTT assay; assay type: cell-based; conditions: read-out: INH
[11] = Cytotoxicity against human MCF7 cells at 10 ug/mL by MTT assay; assay type: cell-based; conditions: read-out: INH
[12] = Cytotoxicity against human MCF7 cells at 3 ug/mL by MTT assay; assay type: cell-based; conditions: read-out: INH
[13] = Cytotoxicity against human A549 cells at 30 ug/mL by MTT assay; assay type: cell-based; conditions: read-out: INH
[14] = Cytotoxicity against human A549 cells at 10 ug/mL by MTT assay; assay type: cell-based; conditions: read-out: INH
[15] = Cytotoxicity against human A549 cells at 3 ug/mL by MTT assay; assay type: cell-based; conditions: read-out: INH
[16] = Cytotoxicity against human HCT116 cells at 30 ug/mL by MTT assay; assay type: cell-based, HCT-116; conditions: read-out: INH
[17] = Cytotoxicity against human HCT116 cells at 10 ug/mL by MTT assay; assay type: cell-based, HCT-116; conditions: read-out: INH
[18] = Cytotoxicity against human HCT116 cells at 3 ug/mL by MTT assay; assay type: cell-based, HCT-116; conditions: read-out: INH
[19] = Cytotoxicity against human HCT116 cells after 48 and 72 hrs by MTT assay; assay type: cell-based, HCT-116; conditions: for GI50 at 72 h: HCT116 cells; for GI90: hct-116, 72 h
[20] = (§2) Cytotoxicity against human A549 cells after 48 and 72 hrs by MTT assay; assay type: cell-based; conditions: A549 cells
[21] = system: A549; test: as §2; assay type: cell-based; conditions: a549, 72 h
[22] = (§3) Cytotoxicity against human MCF7 cells after 48 and 72 hrs by MTT assay; assay type: cell-based; conditions: MCF7 cells
[23] = system: MCF7; test: as §3; assay type: cell-based; conditions: mcf7, 72 h
[24] = system: Escherichia coli; test: Antibacterial activity against Escherichia coli after 18 hrs by broth dilution method; assay type: functional, organism-based
[25] = system: Pseudomonas; test: Antibacterial activity against Pseudomonas after 18 hrs by broth dilution method; assay type: functional, organism-based
[26] = system: Staphylococcus aureus; test: Antibacterial activity against Staphylococcus aureus after 18 hrs by broth dilution method; assay type: functional, organism-based
[27] = system: Bacillus subtilis; test: Antibacterial activity against Bacillus subtilis after 18 hrs by broth dilution method; assay type: functional, organism-based

Structure (SMILES) | growth inhibition (GI) [1] [%] | growth inhibition (GI) [2] [%] | inhibition of growth at 30 µg/mL [3] [%] | inhibition of growth at 10 µg/mL [4] [%] | inhibition of growth at 3 µg/mL [5] [%] | growth inhibition (GI) [6] [%] | IC50 [7] [µg/mL] | IC90 [8] [µg/mL] | IC50 [9] [µg/mL] | IC90 [9] [µg/mL] | cytotoxicity at 30 ug/mL [10] [%] | cytotoxicity at 10 ug/mL [11] [%] | cytotoxicity at 3 ug/mL [12] [%] | cytotoxicity at 30 ug/mL [13] [%] | cytotoxicity at 10 ug/mL [14] [%] | cytotoxicity at 3 ug/mL [15] [%] | cytotoxicity at 30 ug/mL [16] [%] | cytotoxicity at 10 ug/mL [17] [%] | cytotoxicity at 3 ug/mL [18] [%] | GI50 at 72 h [19] [µg/mL] | other results
O=C1CSC(c2ccc(Br)cc2)N1c1ccccc1 (centres undefined) | 48.7 | 44.4 | 97.7 | 66.4 | -33.2 | 48.8 | > 30 | > 30 | 8.9 (≈ 26.6 µM) | 25.2 (≈ 75.4 µM) | 32.8 | 23.8 | 22.1 | 0 | 0 | 0 | 10.1 | 4.9 | 2.4 | > 100 | GI90 [19]: > 100 µg/mL; GI50 at 72 h [20]: > 100 µg/mL; GI90 [21]: > 100 µg/mL; GI50 at 72 h [22]: > 100 µg/mL; GI90 [23]: > 100 µg/mL; IC50 [24]: > 30 µg/mL; MIC [24]: > 30 µg/mL; IC50 [25]: > 30 µg/mL; MIC [25]: > 30 µg/mL; IC50 [26]: > 30 µg/mL; MIC [26]: > 30 µg/mL; IC50 [27]: > 30 µg/mL; MIC [27]: > 30 µg/mL
O=C1CSC(c2ccc(F)cc2)N1c1ccccc1 (centres undefined) | -10.7 | 14.4 | 92.2 | 73.2 | 25.6 | 80.2 | 20.9 (≈ 76.5 µM) | > 30 | 6.8 (≈ 24.9 µM) | 27.5 (≈ 101 µM) | 33 | 10.8 | -4.1 | 0 | 0 | 0 | 23.5 | 14.6 | -0.5 | > 100 | GI90 [19]: > 100 µg/mL; GI50 at 72 h [20]: > 100 µg/mL; GI90 [21]: > 100 µg/mL; GI50 at 72 h [22]: > 100 µg/mL; GI90 [23]: > 100 µg/mL; IC50 [24]: > 30 µg/mL; MIC [24]: > 30 µg/mL; IC50 [25]: > 30 µg/mL; MIC [25]: > 30 µg/mL; IC50 [26]: > 30 µg/mL; MIC [26]: > 30 µg/mL; IC50 [27]: > 30 µg/mL; MIC [27]: > 30 µg/mL
O=C1CSC(c2ccc([N+](=O)[O-])cc2)N1c1ccccc1 (centres undefined) | 17.8 | 12.5 | -8.8 | -30.4 | -17.1 | 14.4 | > 30 | > 30 | > 30 | > 30 | 52.6 | 49.9 | 47 | 8.8 | 6.7 | 0.3 | 29.3 | 9 | -11.5 |  | 
O=C1CSC(c2ccccc2)N1c1ccc(F)cc1 (centres undefined) | 27.7 | 19.5 | 70 | 31.4 | 7.5 | 31 | > 30 | > 30 | 19.8 (≈ 72.4 µM) | > 30 | 7.5 | 0 | -3.9 | 11 | 0 | -13.4 | -6 | 5.3 | -5.4 | > 100 | GI90 [19]: > 100 µg/mL; GI50 at 72 h [20]: > 100 µg/mL; GI90 [21]: > 100 µg/mL; GI50 at 72 h [22]: > 100 µg/mL; GI90 [23]: > 100 µg/mL; IC50 [24]: > 30 µg/mL; MIC [24]: > 30 µg/mL; IC50 [25]: > 30 µg/mL; MIC [25]: > 30 µg/mL; IC50 [26]: > 30 µg/mL; MIC [26]: > 30 µg/mL; IC50 [27]: > 30 µg/mL; MIC [27]: > 30 µg/mL
CC(=O)O[C@H]1C(=O)[C@@]2(C)[C@H]([C@H](OC(=O)c3ccccc3)[C@]3(O)C[C@H](OC(=O)[C@H](O)[C@@H](NC(=O)c4ccccc4)c4ccccc4)C(C)=C1C3(C)C)[C@]1(OC(C)=O)CO[C@@H]1C[C@@H]2O [PACLITAXEL] |  |  |  |  |  |  |  |  |  |  |  |  |  |  |  |  |  |  |  | 5.21 (≈ 6.1 µM) | GI90 [19]: 0.026 µg/mL (≈ 0.0304 µM); GI50 at 72 h [20]: 0.039 µg/mL (≈ 0.0457 µM); GI90 [21]: < 0.004 µg/mL; GI50 at 72 h [22]: 0.075 µg/mL (≈ 0.0878 µM); GI90 [23]: 0.0039 µg/mL (≈ 0.00457 µM)
